What was measured:
[1] = tested on: paracetamol-induced hepatotoxicity in mice; test: Paracetamol-induced hepatotoxicity in mice, serum biochemical parameters (Example I); type: in vivo, Swiss albino mice; conditions: for ALP / ALT / AST / Total Bilirubin / Total Protein / Triglyceride: 10 mg/kg p.o. + paracetamol 200 mg/kg p.o., 7 days, serum, mean ± SD, n=6
From the text: 3-OH-DBP (Natreon, Inc., New Brunswick, N.J., synthesized to 99% purity w/w) was in the form of a white free flowing powder. 3,8-(OH)2-DBP (Natreon, Inc., New Brunswick, N.J., synthesized to 99% purity w/w) was in the form of a pale green free flowing powder. Paracetamol (acetaminophen) was in the form of a white solid tablet.
Swiss albino mice of both sexes, weighing approximately 25-30 g, were obtained from National Research Institute of Ayurveda for Drug Development (Govt. of India), Kolkata, and were housed in polypropylene cages at 22±3° C., relative air humidity of 45 to 55%, with 12.00 hr light and dark cycle (lighting on from 6:00 AM to 6:00 PM). Mice were provided standard pellet chow (carbohydrate 65.5%, protein 17.6%, fat 6.6%) and distilled water ad libitum. The mice were acclimatized for one week in the above laboratory conditions, before being used in this experiment. All experiments were conducted between 10.00 hr and 14.00 hr. Principles of laboratory animal care (NIH publication no. 85-23, revised 1985) were followed.
The animals were randomly assigned into four groups of six animals each, as set out in Table 1. […] After 1 hr of last treatment, blood samples were collected and serum was separated.

[2] = tested on: alcohol-induced hepatotoxicity in mice; test: Alcohol (ethanol)-induced hepatotoxicity in mice, biochemical and physical parameters (Example III); type: in vivo, Swiss Albino mice; conditions: for Relative organ weight (w.r.t body weight) Kidney / Relative organ weight (w.r.t body weight) Liver / ACP / ALP / ALT(SGPT) / AST(SGOT) / Total Protein: 10 mg/kg p.o. + alcohol 5 g/kg p.o. twice daily, mean ± SD; for ACP / ALP / ALT(SGPT) / AST(SGOT) / Total Protein: plasma
Description: Swiss Albino male and female mice weighing approximately 30±5 g, 2 month old mice were obtained from National Research Institute of Ayurveda for Drug Development (Govt. of India), Kolkata, and were housed in polypropylene cages at 22±3° C., relative air humidity of 45 to 55%, with 12.00 hr light & dark cycle (lighting on from 6:00 AM to 6:00 PM). Mice were provided a standard pellet chow diet (carbohydrate 65.5%, protein 17.6%, fat 6.6%) and distilled water ad libitum. The mice were acclimatized for one week in the laboratory conditions, before being used in the experiment. All experiments were conducted between 10.00 hr and 14.00 hr. Principles of laboratory animals care (NIH publication no. 85-23, revised 1985) were followed.
In the present study simultaneous administration of alcohol (ethanol) and treatment with 3-OH-DBP and 3,8-(OH)2-DBP was done.
Vehicle control animals (“Con Veh”) were administered 0.3% CMC orally for 15 days.
Animals receiving ethanol (“Alc+0.3 CMC”, “3-OH-DBP+Alc”, “3,8-(OH)2-DBP+Alc”) were administered ethanol in 0.3% CMC orally as discussed above.
Results were expressed in terms of mean±SD (n=8). The data were subjected to one way ANOVA followed by Tukey's test using GraphPad Prism 4.0 software to establish statistical significance (*p<0.05, **p<0.01, ***p<0.001 vs. vehicle control; # p<0.05, ## p<0.01, ### p<0.001 vs. animals administered ethanol only).

[3] = tested on: alcohol-induced hepatotoxicity in mice; test: Synergistic hepatoprotective activity of DBPs against alcohol-induced hepatotoxicity (Example IV); conditions: for ACP / ALP / ALT / AST / Total Protein: alcohol 5 g/kg, mean ± SEM, n=4
Description: Hepatotoxicity was induced by oral administration of alcohol (ethanol: 5 g/kg) from stock 400 mg/ml twice daily for 15 days.
3-OH-DBP and 3,8-(OH)2-DBP were each separately suspended in 0.3% CMC and administered at a dose of 10 mg/kg body weight per orally for 15 days. During the 15 days treatment, body weight, food intake, and water intake were monitored at regular intervals. Following 15 days of treatment physical parameters (relative organ weight) and biochemical parameters (plasma total protein content, ALT, AST, ALP, and ACP) were studied.
3-OH-DBP (2 mg/kg body weight, 10 mg/kg body weight);
3,8-(OH)2-DBP (10 mg/kg body weight, 50 mg/kg body weight); and

[4] = female mice (Table 14), 10 mg/kg p.o.
[5] = male mice (Table 13), 10 mg/kg p.o.
[6] = female mice, doses 3-OH-DBP 2, 3,8-(OH)2-DBP 10, combination 12 mg/kg b.w.
[7] = female mice, doses 3-OH-DBP 10, combination 60 mg/kg b.w.
[8] = male mice, doses 3-OH-DBP 2, 3,8-(OH)2-DBP 10, 1:5 combination 12 mg/kg b.w.
[9] = male mice, doses 3-OH-DBP 10, 3,8-(OH)2-DBP 50, 1:5 combination 60 mg/kg b.w.

O=c1oc2cc(O)ccc2c2ccccc12 [3-OH-DBP, 3-hydroxy-dibenzo-alpha-pyrone]
effect on paracetamol-induced hepatotoxicity (ALT, AST, triglyceride, bilirubin vs paracetamol group) ([1]; 10 mg/kg body weight, male (Table 2) and female (Table 3) mice): significantly attenuated and reversed the paracetamol-induced hepatotoxicity
hepatoprotective activity against paracetamol, comparison of both test compounds ([1]; female mice, 10 mg/kg orally for 7 days, paracetamol 200 mg/kg): almost the same hepatoprotective activity
ALP ([1]; female mice): 82.04 ± 8.96 IU/L
ALT ([1]; female mice): 62.32 ± 15.97 IU/L
AST ([1]; female mice): 62.28 ± 12.46 IU/L
Total Bilirubin ([1]; female mice): 0.46 ± 0.26 mg/dL
Total Protein ([1]; female mice): 6.6 ± 0.44 g/dL
Triglyceride ([1]; female mice): 61.05 ± 1.73 mg/dL
hepatoprotective activity against paracetamol-induced liver damage, in comparison with 3,8-(OH)2-DBP ([1]; male mice, 10 mg/kg orally once daily for 7 days, paracetamol 200 mg/kg): better hepatoprotective activity
ALP ([1]; male mice): 80.00 ± 5.64 IU/L
ALT ([1]; male mice): 65.42 ± 23.50 IU/L
AST ([1]; male mice): 52.23 ± 3.73 IU/L
Total Bilirubin ([1]; male mice): 0.50 ± 0.23 mg/dL
Total Protein ([1]; male mice): 6.27 ± 0.14 g/dL
Triglyceride ([1]; male mice): 97.65 ± 1.96 mg/dL
hepatoprotective activity against alcohol-induced hepatotoxicity ([2]; 10 mg/kg p.o., 15 days): significant hepatoprotective activity
effect on alcohol-induced increased plasma ACP [2, 4]: significantly (p<0.05) attenuated
effect on alcohol-induced increased plasma ALT [2, 4]: significantly (p<0.001) attenuated
effect on alcohol-induced increased plasma AST [2, 4]: significantly (p<0.05; p<0.01) attenuated
effect on plasma ALP level compared with ALC group [2, 4]: significantly (p<0.05) decreased
Relative organ weight (w.r.t body weight) Kidney ([2]; female mice, 15 days): 0.013 ± 0.001^
Relative organ weight (w.r.t body weight) Liver ([2]; female mice, 15 days): 0.052 ± 0.011^
ACP ([2]; female mice, 15 days): 5.58 ± 2.19^# IU/L
ALP ([2]; female mice, 15 days): 32.95 ± 13.06^# IU/L
ALT(SGPT) ([2]; female mice, 15 days): 6.72 ± 2.88^## IU/L
AST(SGOT) ([2]; female mice, 15 days): 6.19 ± 1.94^# IU/L
Total Protein ([2]; female mice, 15 days): 2.75 ± 0.167 g/dL
effect on alcohol-induced increased plasma ACP [2, 5]: significantly (p<0.05) attenuated
effect on alcohol-induced increased plasma ALT [2, 5]: significantly (p<0.05) attenuated
effect on alcohol-induced increased plasma AST [2, 5]: significantly (p<0.05) attenuated
Relative organ weight (w.r.t body weight) Kidney ([2]; male mice, 15 days): 0.014 ± 0.001
Relative organ weight (w.r.t body weight) Liver ([2]; male mice, 15 days): 0.044 ± 0.001
ACP ([2]; male mice, 15 days): 5.36 ± 2.34^# IU/L
ALP ([2]; male mice, 15 days): 20.20 ± 6.18^# IU/L
ALT(SGPT) ([2]; male mice, 15 days): 11.93 ± 4.364^# IU/L
AST(SGOT) ([2]; male mice, 15 days): 5.83 ± 1.75^# IU/L
Total Protein ([2]; male mice, 15 days): 2.75 ± 0.167 g/dL
hepatoprotective activity (conclusion, Tables 17 and 18) ([3]; alcohol-induced hepatotoxicity, male and female mice): hepatoprotective activity in a dose dependent manner
ACP [3, 6]: 19.3 ± 1 (b) U/L
ALP [3, 6]: 106.6 ± 8 (b) ^ IU/L
ALT [3, 6]: 85.31 ± 7.89 (b) IU/L
AST [3, 6]: 54.81 ± 8.13 (b)^ IU/L
Total Protein [3, 6]: 7.21 ± 0.36 g/dL
ACP [3, 7]: 12.1±***,^# (e) U/L
ALP [3, 7]: 79 ± 11 (e) IU/L
ALT [3, 7]: 57.15 ± 3.46 (e) IU/L
AST [3, 7]: 41.11 ± 6.98 (e)^ IU/L
Total Protein [3, 7]: 6.53 ± 0.32 g/dL
ACP, difference in values from alcohol treated mice [3, 6]: A = (a-b = 1.97) U/L
ALP, difference in values from alcohol treated mice [3, 6]: A = (a-b = 33.4) IU/L
ALT, difference in values from alcohol treated mice [3, 6]: A = (a-b = 3.53) IU/L
AST, difference in values from alcohol treated mice [3, 6]: A = (a-b = 14.14) IU/L
ACP, difference in values from alcohol treated mice [3, 7]: D = (a-e = 8.9) U/L
ALP, difference in values from alcohol treated mice [3, 7]: D = (a-e = 61) IU/L
ALT, difference in values from alcohol treated mice [3, 7]: D = (a-e = 31.69) IU/L
AST, difference in values from alcohol treated mice [3, 7]: D = (a-e = 27.84) IU/L
ACP [3, 8]: 13.3 ± 1.03 (b) U/L
ALP [3, 8]: 90.2 ± 6.68 (b) IU/L
ALT [3, 8]: 74.9 ± 1.66 (b) IU/L
AST [3, 8]: 46.5 ± 3.19 (b) IU/L
Total Protein [3, 8]: 6.68 ± 0.43 g/dL
ACP [3, 9]: 11.6 ± 0.89 (e) U/L
ALP [3, 9]: 83.4 ± 4.87 (e) IU/L
ALT [3, 9]: 65.4 ± 2.59(e) IU/L
AST [3, 9]: 39.9 ± 5.30 (e) IU/L
Total Protein [3, 9]: 8.24 ± 0.43 g/dL
ACP, difference in values from alcohol treated mice [3, 8]: A = (a-b = 5.3) U/L
ALP, difference in values from alcohol treated mice [3, 8]: A = (a-b = 43.8) IU/L
ALT, difference in values from alcohol treated mice [3, 8]: A = (a-b = 31.1) IU/L
AST, difference in values from alcohol treated mice [3, 8]: A = (a-b = 13.5) IU/L
ACP, difference in values from alcohol treated mice [3, 9]: D = (a-e = 7) U/L
ALP, difference in values from alcohol treated mice [3, 9]: D = (a-e = 50.6) IU/L
ALT, difference in values from alcohol treated mice [3, 9]: D = (a-e = 40.6) IU/L
AST, difference in values from alcohol treated mice [3, 9]: D = (a-e = 20.8) IU/L

Reference: patent US20220071952A1, “METHODS OF TREATING AND PREVENTING HEPATOTOXICITY” (Natreon, Inc., priority 2020, published 2022)
